Structures can show the parent of a compound that is named as a salt.
Key:
Assay type in all cases: cell-based
[1] = test system: C. albicans (ATCC 64549); assay: Microbicidal microplate assay (viable counts), C. albicans
Procedure: The bacterial strains S. aureus 1800 (CCUG 1800), E. coli 06, and the yeast C. albicans (ATCC 64549) have been used in the microplate assay. All microorganisms were cultured in brain heart infusion medium (BHI) on a shaker over night at 37° C. A volume of the culture was transferred to a new tube with BHI and incubated for two more h on the shaker. The bacteria were harvested in the log phase, washed once and thereafter suspended in the broth used for the microplate assay. The suspension was adjusted spectrophotometrically and diluted to a concentration of approximately 4×10^6 cells per ml at 650 nm. Washed cells were suspended in 0.2% BP (pH 7.0) or BHI medium diluted 1/10 (0.34%, pH 6.7-6.9) (Difco, USA). The concentration of bacterial or fungal cells was spectrophotometrically adjusted. LF or peptide, serially diluted in BHIdil or BP by twofold steps (unless otherwise stated), were added in triplicate to the wells of a microtiterplate (200 ul per well). The bacterial or yeast cell solutions were added in 10 ul volumes to give a final concentration of approximately 2×10^5 cells per ml. The concentration of the stock solution was always checked by viable counts. The microplate was incubated at 37° C. in a humid chamber for 2 h unless otherwise stated. Five ul were taken from each well and added as a drop onto a blood agar plate and incubated over night at 37° C. In some experiments more thorough viable counts were performed and the killing was expressed as remaining colony forming units in relation to the inoculum. The lower limit for detection of microorganisms was 200 CFU/ml. The antimicrobial activity of human LF was analysed by the microbicidal assay described above. Different microbes such as C. albicans, E. coli and S. aureus were analysed with respect to their survival in lactate (not containing the inert gel base, which makes the gel unsuitable for the microbicidal assay) containing LF. […] LF was incubated together with various concentrations of lactate diluted in 0.2% bactopeptone and C. albicans for 2 h. Thereafter each solution was analysed for viable counts.

[2] = test system: E. coli 06; assay: Microbicidal microplate-droplet assay, E. coli; set-up: key to E. coli killing, growth grade in droplet assay: +++ means that the number of colony forming units (CFU) contained within 5 ul of a droplet formed a smooth layer of bacteria; ++ means that a “ruffled” area is seen; 0 means that no CFU were found in triplicate samples of 5 ul (>99.95 killed of the inoculum)
Procedure: (§1) The bacterial strains S. aureus 1800 (CCUG 1800), E. coli 06, and the yeast C. albicans (ATCC 64549) have been used in the microplate assay. All microorganisms were cultured in brain heart infusion medium (BHI) on a shaker over night at 37° C. A volume of the culture was transferred to a new tube with BHI and incubated for two more h on the shaker. The bacteria were harvested in the log phase, washed once and thereafter suspended in the broth used for the microplate assay. The suspension was adjusted spectrophotometrically and diluted to a concentration of approximately 4×10^6 cells per ml at 650 nm. Washed cells were suspended in 0.2% BP (pH 7.0) or BHI medium diluted 1/10 (0.34%, pH 6.7-6.9) (Difco, USA). The concentration of bacterial or fungal cells was spectrophotometrically adjusted. LF or peptide, serially diluted in BHIdil or BP by twofold steps (unless otherwise stated), were added in triplicate to the wells of a microtiterplate (200 ul per well). The bacterial or yeast cell solutions were added in 10 ul volumes to give a final concentration of approximately 2×10^5 cells per ml. The concentration of the stock solution was always checked by viable counts. The microplate was incubated at 37° C. in a humid chamber for 2 h unless otherwise stated. Five ul were taken from each well and added as a drop onto a blood agar plate and incubated over night at 37° C. In some experiments more thorough viable counts were performed and the killing was expressed as remaining colony forming units in relation to the inoculum. The lower limit for detection of microorganisms was 200 CFU/ml. The antimicrobial activity of human LF was analysed by the microbicidal assay described above. Different microbes such as C. albicans, E. coli and S. aureus were analysed with respect to their survival in lactate (not containing the inert gel base, which makes the gel unsuitable for the microbicidal assay) containing LF.

[3] = test system: S. aureus 1800 (CCUG 1800); assay: Microbicidal microplate-droplet assay, S. aureus
Procedure: as §1

[4] = test system: L. jensenii; assay: Survival of L. jensenii in lactate with LF; details: lactate 1%, 0.34% BHI, CO2, 3 h
Procedure: L. gasseri and L. jensenii were cultured on chocolate-agar plates for 24 h in 5% CO2/95% air. They were thereafter harvested and added to BHI (0.34%). After washing the bacterial solutions were adjusted spectrophotometrically and diluted to 8×10^6 bacteria/ml.
Washed cells were suspended in 0.2% BP (pH 7.0) or BHI medium diluted 1/10 (0.34%, pH 6.7-6.9) (Difco, USA). The concentration of bacterial or fungal cells was spectrophotometrically adjusted. LF or peptide, serially diluted in BHIdil or BP by twofold steps (unless otherwise stated), were added in triplicate to the wells of a microtiterplate (200 ul per well). The bacterial or yeast cell solutions were added in 10 ul volumes to give a final concentration of approximately 2×10^5 cells per ml. The concentration of the stock solution was always checked by viable counts. The microplate was incubated at 37° C. in a humid chamber for 2 h unless otherwise stated. Five ul were taken from each well and added as a drop onto a blood agar plate and incubated over night at 37° C. In some experiments more thorough viable counts were performed and the killing was expressed as remaining colony forming units in relation to the inoculum. The lower limit for detection of microorganisms was 200 CFU/ml.
L. gasseri survived better in the assay system than did L. jensenii. Undiluted lactate (5%) affected the survival of Lactobacillus.

[5] = in the absence or presence of LF

Cl [HCl, hydrogen chloride, reference compound]
Candidacidal activity with lactate replaced by HCl ([1]; HCl giving the same pH as lactate, undiluted, with LF): reduced Candidacidal activity

CC(O)C(=O)O (stereo not drawn) [lactate, α-hydroxipropionic acid]
reduction of Candida ([1]; lactate 1% without LF, 2 h): 65% | antifungal activity ([1]; undiluted lactate): an antifungal activity was observed | survival of C. albicans ([1]; undiluted lactate (5%), 2 h): no yeast cells survived | antimicrobial activity against C. albicans ([1]; undiluted lactate (5%), without LF or HL2): complete | antibacterial activity towards E. coli [2, 5]: good | E. coli killing, growth grade in droplet assay ([2]; lactate 0.2% alone (HLF 0 ug/ml), 2 h incubation): ++ | E. coli killing, percentage of bacteria remaining in relation to the inoculum ([2]; lactate 0.2% alone (HLF 0 ug/ml), 5 h incubation): 5% | E. coli killing, percentage of bacteria remaining in relation to the inoculum ([2]; lactate 1% alone (HLF 0 ug/ml), 5 h incubation): 6% | E. coli killing, percentage of bacteria remaining in relation to the inoculum ([2]; lactate 5% alone (HLF 0 ug/ml), 2 h incubation): 0 (0 means that no CFU were found in triplicate samples of 5 ul (>99.95 killed of the inoculum)) | E. coli killing, percentage of bacteria remaining in relation to the inoculum ([2]; lactate 5% alone (HLF 0 ug/ml), 5 h incubation): 0 (0 means that no CFU were found in triplicate samples of 5 ul (>99.95 killed of the inoculum)) | survival of E. coli ([2]; undiluted lactate (5%), 2 h): no bacteria survived | antimicrobial activity against E. coli ([2]; undiluted lactate, without LF): complete | antibacterial activity towards S. aureus [3, 5]: good | S. aureus killing, percentage of bacteria remaining in relation to the inoculum ([3]; lactate 0.2% alone (HLF t0 ug/ml), 2 h incubation): 0 (0 = no bacteria in triplicate samples of 5 ul (>99.95 killed of the inoculum).) | S. aureus killing, percentage of bacteria remaining in relation to the inoculum ([3]; lactate 0.2% alone (HLF t0 ug/ml), 5 h incubation): 0 (0 = no bacteria in triplicate samples of 5 ul (>99.95 killed of the inoculum).) | S. aureus killing, percentage of bacteria remaining in relation to the inoculum ([3]; lactate 1% alone (HLF t0 ug/ml), 2 h incubation): 0 (0 = no bacteria in triplicate samples of 5 ul (>99.95 killed of the inoculum).) | S. aureus killing, percentage of bacteria remaining in relation to the inoculum ([3]; lactate 1% alone (HLF t0 ug/ml), 5 h incubation): 0 (0 = no bacteria in triplicate samples of 5 ul (>99.95 killed of the inoculum).) | S. aureus killing, percentage of bacteria remaining in relation to the inoculum ([3]; lactate 5% alone (HLF t0 ug/ml), 2 h incubation): 0 (0 = no bacteria in triplicate samples of 5 ul (>99.95 killed of the inoculum).) | S. aureus killing, percentage of bacteria remaining in relation to the inoculum ([3]; lactate 5% alone (HLF t0 ug/ml), 5 h incubation): 0 (0 = no bacteria in triplicate samples of 5 ul (>99.95 killed of the inoculum).) | antimicrobial activity against S. aureus ([3]; undiluted lactate, without LF): complete | survival of L. jensenii [4]: did not survive

From patent US20080161234A1, “Composition Comprising Lactic Acid and Lactoferrin” (priority 2004, published 2008)
